The target in this assay is T1, recombinant HIV-1 protease (Human immunodeficiency virus type 1 group M subtype B, UniProt P04585).
T1 construct: recombinant HIV-1 protease; purchased Bachem Bioscience
Briefly: Fluorometric (FRET) enzymatic assay for the inhibition constant (Ki) against the HIV protease. It counts as biochemical. From the text:
Enzymatic Assay for Determining the Inhibition Constant (Ki) of Synthetic Compounds Prepared Against the HIV Protease
This is a fluorometric assay based on the cleavage by protease of a substrate carrying a donor group (EDANS, excitation at 340 nm and emission at 490 nm) and an acceptor group (DABCYL) on each side of the cleavage site, interacting together through fluorescence resonance energy transfer (FRET). Cleavage of the substrate by protease stops energy exchange between the two groups, resulting in a time-dependent increase in fluorescence intensity that is linearly related to the extent of substrate hydrolysis.
The enzymatic assay is done at 30° C. in a spectrophotometer microcuvet, in a total volume of 400 μL. The apparatus used for readings is a UV-visible Cary 1 spectrophotometer made by Varian. The reaction is run first in the absence of protease inhibitors for 2 min, using 355 μL of buffer at pH 4.7 (sodium acetate 100 mM, NaCl 1 M, EDTA 1 mM, DTT 1 mM, dimethylsulfoxide 10%, and BSA 1 mg/mL), 40 μL of substrate H-2930 from Molecular Probes (final concentration 10 μM) and 5 μL of recombinant HIV-1 protease (final concentration 18.3 nM) purchased from Bachem Bioscience. Fluorescence readings at […] are taken continuously during the reaction, allowing determination of the enzyme's initial velocity (v0). At the end of the 2 min incubation, the potential inhibitor at a defined concentration in a volume of 2 μL is added to the reaction, and fluorescence readings are taken for another 2 min, allowing determination of enzyme velocity (vi) in the presence of the inhibitory compound. Several concentrations of the putative inhibitors are tested in the assay. After calculation of vo and vi, the inhibition constant (Ki) of the compound is determined using the equation of Henderson: [formula]
and [I]=inhibitor concentration, [S ]=substrate concentration, Km=Michaelis-Menten constant, Kiapp =apparent Ki
Note that the Michaelis-Menten constant of HIV protease is determined by running the assay without inhibitors, using several concentrations of substrate, and plotting the results as a Cornish-Bowden graph with the ratio substrate concentration/velocity as the ordinate and substrate concentration as the abscissa.

The mark [1] stands for this setting: Table 2, tetra-substituted D-mannitol derivatives, pH 4.7, 30° C., substrate 10 μM, protease 18.3 nM.
Where [2] appears, read: Table 1, benzylated D-mannitol derivatives, pH 4.7, 30° C., substrate 10 μM, protease 18.3 nM.

Where two headings read alike, the source gives them in different places.

With `O[C@H]([C@@H](O)[C@H](COCc1cccs1)OCc1ccccc1)[C@H](COCc1cccs1)OCc1ccccc1` (stereo in doubt) [Compound 92, 1,6-di-O-(2-thienylmethyl)-2,5-di-O-benzyl-L-mannitol], the Ki (commonly the dissociation constant of the complex between target and ligand, obtained from inhibition or displacement) under setting [1] was 0.8 µM.
Take `O[C@@H]([C@H](O)[C@@H](COCc1ccccc1)OCc1ccccc1F)[C@@H](COCc1ccccc1)OCc1ccccc1F` [Compound 21, 1,6-di-O-benzyl-2,5-di-O-(2-fluorobenzyl)-D-mannitol]: the Ki was 3.7 µM.
Regarding `O[C@@H]([C@H](O)[C@@H](COCc1ccccc1)OCC=Cc1ccccc1)[C@@H](COCc1ccccc1)OCC=Cc1ccccc1` [Compound 84, 1,6-di-O-benzyl, 2,5-di-O-cinnamyl-D-mannitol], under setting [1], the Ki was more than 1 µM.
Regarding `OCc1ccc(COC[C@@H](OCc2ccccc2)[C@@H](O)[C@H](O)[C@@H](COCc2ccc(CO)cc2)OCc2ccccc2)cc1` [Compound 48, 1,6-di-(4-hydroxymethylbenzyl)-2,5-dibenzyl-D-mannitol], the Ki under setting [2] is 1.2 µM.
With `O[C@@H]([C@H](O)[C@@H](COCc1ccccc1F)OCc1cccc(F)c1)[C@@H](COCc1ccccc1F)OCc1cccc(F)c1` [Compound 57, 1,6-di-O-(2-fluorobenzyl)-2,5-di-O-(3-fluorobenzyl)-D-mannitol], the Ki under setting [2] worked out at 1.5 µM.
As to `O=[N+]([O-])c1ccc(CO[C@H](COCc2ccccc2)[C@@H](O)[C@H](O)[C@H](O)COCc2ccccc2)cc1` [Compound 99, 1,6-di-O-benzyl-2-O-(4-nitrobenzyl)-D-mannitol], the Ki (Table 3, di- and tri-substituted D-mannitol derivatives, pH 4.7, 30° C., substrate 10 μM, protease 18.3 nM) came to 45 µM.
Take `O[C@@H]([C@H](O)[C@@H](COCc1ccc(Cl)cc1)OCc1ccccc1)[C@@H](COCc1ccc(Cl)cc1)OCc1ccccc1` [Compound 55, 1,6-di-O-(4-chlorobenzyl)-2,5-di-O-benzyl-D-mannitol]: the Ki was 5.2 µM.
Turning to `O[C@@H]([C@H](O)[C@@H](COCc1ccc(C(F)(F)F)cc1)OCc1ccc(C(F)(F)F)cc1)[C@@H](COCc1ccc(C(F)(F)F)cc1)OCc1ccc(C(F)(F)F)cc1` [Compound 11, 1,2,5,6-tetra-O-(4-trifluoromethylbenzyl)-D-mannitol], the Ki under setting [2] was more than 5 µM.
As to `O[C@@H]([C@H](O)[C@@H](COCc1ccccc1)OCc1ccc(F)cc1)[C@@H](COCc1ccccc1)OCc1ccc(F)cc1` [Compound 16, 1,6-di-O-benzyl-2,5-di-O-(4-fluorobenzyl)-D-mannitol], the Ki under setting [2] came out at 0.7 µM.
`Oc1ccc(CO[C@H](COCc2ccccc2F)[C@@H](O)[C@H](O)[C@@H](COCc2ccccc2F)OCc2ccc(O)cc2)cc1` [Compound 5, 1,6-di-(2-fluorobenzyl)-2,5-di-(4-hydroxybenzyl)-D-mannitol]: the Ki under setting [2] is 2.7 µM.
As for `O[C@@H]([C@H](O)[C@@H](COCc1ccccc1)OCc1ccncc1)[C@@H](COCc1ccccc1)OCc1ccncc1` [Compound 86, 1,6-di-O-benzyl-2,5-di-O-(4-pyridylmethyl)-D-mannitol], under setting [1], the Ki was more than 50 µM.
`Cc1ccc(COC[C@@H](OCc2ccccc2)[C@@H](O)[C@H](O)[C@@H](COCc2ccc(C)cc2)OCc2ccccc2)cc1` [Compound 26, 1,6-di-O-(4-methylbenzyl)-2,5-di-O-benzyl-D-mannitol]: the Ki under setting [2] worked out at 3 µM.
On to `O[C@@H]([C@H](O)[C@@H](COCc1ccc(Br)cc1)OCc1ccccc1)[C@@H](COCc1ccc(Br)cc1)OCc1ccccc1` [Compound 54, 1,6-di-O-(4-bromobenzyl)-2,5-di-O-benzyl-D-mannitol], for which the Ki under setting [2] was more than 3 µM.
For `O[C@@H]([C@H](O)[C@@H](COCc1ccccc1)OCc1ccc2ccccc2c1)[C@@H](COCc1ccccc1)OCc1ccc2ccccc2c1` [Compound 80, 1,6-di-O-benzyl-2,5-di-O-(2-naphthylmethyl)-D-mannitol], the Ki under setting [1] was more than 1.25 µM.
As for `N#Cc1ccc(COC[C@@H](OCc2ccc(C#N)cc2)[C@@H](O)[C@H](O)[C@@H](COCc2ccc(C#N)cc2)OCc2ccc(C#N)cc2)cc1` [Compound 12, 1,2,5,6-tetra-O-(4-cyanobenzyl)-D-mannitol], the Ki under setting [2] worked out at 3.1 µM.
In the case of `Cc1ccc(COC[C@@H](OCc2ccc(C)cc2)[C@@H](O)[C@H](O)[C@@H](COCc2ccc(C)cc2)OCc2ccc(C)cc2)cc1` [Compound 50, 1,2,5,6-tetra-O-(4-methylbenzyl)-D-mannitol], the Ki under setting [2] was more than 1 µM.
Regarding `C=CCO[C@H](COCc1ccccc1)[C@@H](O)[C@H](O)[C@@H](COCc1ccccc1)OCC=C` [Compound 82, 1,6-di-O-benzyl-2,5-di-O-allyl-D-mannitol], under setting [1], the Ki stood at 11 µM.
Consider `N#Cc1ccc(CO[C@H](COCc2ccccc2)[C@@H](O)[C@H](O)[C@@H](COCc2ccccc2)OCc2ccc(C(N)=O)cc2)cc1` [Compound 60, 1,6-di-O-benzyl-2-O-(4-cyanobenzyl)-5-O-(4-carboxamidobenzyl)-D-mannitol], for which, under setting [2], the inhibitory constant (Ki) was determined as 13 µM.
Take `O[C@@H]([C@H](O)[C@@H](COCc1ccccc1)OCc1ccc(Br)cc1)[C@@H](COCc1ccccc1)OCc1ccc(Br)cc1` [Compound 18, 1,6-di-O-benzyl, 2,5-di-O-(4-bromobenzyl)-D-mannitol]: the Ki under setting [2] amounted to 2.1 µM.
In the case of `O[C@@H]([C@H](O)[C@@H](COCc1c(F)cccc1F)OCc1ccccc1)[C@@H](COCc1c(F)cccc1F)OCc1ccccc1` [Compound 35, 1,6-di-O-(2,6-difluorobenzyl)-2,5-di-O-benzyl-D-mannitol], the Ki under setting [2] is 0.33 ± 0.05 µM.
The same measure, in the same setting: the same measure for `NC(=O)c1ccc(CO[C@H](COCc2ccccc2)[C@@H](O)[C@H](O)[C@@H](COCc2ccccc2)OCc2ccc(C(N)=O)cc2)cc1` [Compound 44, 1,6-di-O-benzyl-2,5-di-O-(4-carboxamidobenzyl)-D-mannitol]: 20 µM.
For `Cc1ccc(CO[C@H](COCc2ccccc2F)[C@@H](O)[C@H](O)[C@@H](COCc2ccccc2F)OCc2ccc(C)cc2)cc1` [Compound 56, 1,6-di-O-(2-fluorobenzyl)-2,5-di-O-(4-methylbenzyl)-D-mannitol], under setting [2], the Ki was determined as 3.5 µM.
As to `O[C@@H]([C@H](O)[C@@H](COCc1ccccc1F)OCc1ccc(F)cc1)[C@@H](COCc1ccccc1)OCc1ccc(F)cc1` [Compound 63, 1-O-benzyl-6-O-(2-fluorobenzyl)-2,5-di-O-(4-fluorobenzyl)-D-mannitol], under setting [2], the Ki amounted to 0.89 µM.
`O[C@@H]([C@H](O)[C@@H](COCc1ccccc1F)OCc1ccc(F)cc1)[C@@H](COCc1ccccc1F)OCc1ccc(F)cc1` [Compound 40, 1,6-di-O-(2-fluorobenzyl)-2,5-di-O-(4-fluorobenzyl)-D-mannitol]: under setting [2], the Ki is 0.28 µM.
Regarding `Oc1ccc(COC[C@@H](OCc2ccc(F)cc2)[C@@H](O)[C@H](O)[C@@H](COCc2ccc(OCc3ccccc3)cc2)OCc2ccc(F)cc2)cc1` [Compound 76, 1-O-(4-hydroxybenzyl)-6-O-(4-benzyloxybenzyl)-2,5-di-O-(4-fluorobenzyl)-D-mannitol], the Ki under setting [2] came to 0.9 µM.
Turning to `O[C@@H]([C@H](O)[C@@H](COCc1ccc(F)cc1F)OCc1ccccc1)[C@@H](COCc1ccc(F)cc1F)OCc1ccccc1` [Compound 33, 1,6-di-O-(2,4-fluorobenzyl)-2,5-di-O-benzyl-D-mannitol], under setting [2], the Ki was determined as 4.2 ± 0.5 µM.
Turning to `O[C@@H]([C@H](O)[C@@H](COCc1ccccc1)OCC1CC1)[C@@H](COCc1ccccc1)OCC1CC1` [Compound 83, 1,6-di-O-benzyl-2,5-di-O-cyclopropylmethyl-D-mannitol], the Ki under setting [1] is 9 µM.
